From patent publication US11739326B2, “RUNX1 inhibition for treatment of proliferative vitreoretinopathy and conditions associated with epithelial to mesenchymal transition” (The Schepens Eye Research Institute, Inc., priority 2017, dated 2023) come the findings set out here.

Structures are written as SMILES. Entries after “also recorded” stand apart in the source; their conditions may differ.

For experiment [1], the system named is ARPE-19 cells. The experiment is described as follows: CyQuant cell proliferation assay in ARPE-19 cells. Type of experiment: cell-based. The conditions noted are these: for percent live cells: Ro5-3335 100, 50, 25 μM, methotrexate 400, 100, 10 μM, alone or in combination vs vehicle. As for the experimental part: (§1) ARPE 19 cells were cultured in 96 well plates for 8 hours, followed by treatment with RUNX1 inhibitor (Ro5-3335, Calbiochem) or Methotrexate (Sigma) in growth media or vehicle only for a period of 24 or 48 hours. The cells were washed and the CyQuant Direct nucleic acid stain was added and incubated at 37° C. in the incubator. Fluorescence read outs were measured at wavelengths as instructed in the protocol.

Experiment [2] deals with C-PVR cells. The experiment is described as follows: CyQuant cell proliferation assay in C-PVR cells. It counts as cell-based, human. The conditions noted are these: for percent live cells: C-PVR, Ro5-3335 100, 50, 25 μM, methotrexate 400, 100, 10 μM, alone or in combination vs vehicle.
For experiment [3], the system named is C-PVR cells. The experiment is described as follows: Ki67 staining of C-PVR cells (cell number and proliferative capacity). Type of experiment: cell-based, human. The settings on record: Ro5-3335 150 μM, 48 hours, vs vehicle. How it is done:
C-PVR (e.g., case 5) cells were transfected with the siRUNX1 or siScramble for 48 hours and washed and fixed with 4% paraformaldehyde for 10 minutes at room temperature. The cells were washed with PBS and blocked for an hour in (10% goat serum in PBS) incubated with rabbit anti-Ki67 antibody (1:50; Novus Biologicals) overnight at 4 degrees. Cells were incubated with secondary antibody goat anti-rabbit 594 (1:300; Life Technologies) for 2 hours along with DAPI, then were washed and imaged (FIG. 7A-7I; quantitation depicted in FIG. 8).
C-PVR cells (e.g., case 5) were cultured in 48 well plates for 24, followed by treatment with 150 μM RUNX1 inhibitor (Ro5-3335, Calbiochem), or vehicle only for a period of 48 hours. The cells were washed and fixed with 4% paraformaldehyde for 10 minutes at room temperature. The cells were washed with PBS and blocked for an hour in (10% goat serum in PBS) incubated with rabbit anti-Ki67 antibody (1:50; Novus Biologicals) overnight at 4 degrees. Cells were incubated with secondary antibody goat anti-rabbit 594 (1:300; Life Technologies) for 2 hours along with DAPI, washed, imaged and quantified using Image J (FIGS. 9A and 9B).
C-PVR cells (e.g., case 5) were cultured in 48 well plates for 24, followed by treatment with 150 μM RUNX1 inhibitor (Ro5-3335, Calbiochem), or vehicle only for a period of 48 hours. […]

The subject of a further experiment is human PVR membranes. Description: Human PVR membrane explant model in Matrigel. The settings on record: Ro5-3335 150 μM, combination with methotrexate 400 μM; for growth of human PVR membranes in explant model: vs control (DMSO). Type of experiment: cell-based. As for the experimental part:
(§2) PVR membranes were freshly obtained from patients and placed in growth factor-reduced Matrigel (BD Biosciences) seeded in 24 well plates. 30 μl of matrigel were used to coat the bottom of 24 well plates without touching the edges of the well. After seeding the PVR membrane, explant plates were incubated in a 37° C. cell incubator without medium for 10 minutes in order for the Matrigel to solidify. 500 μl of medium was added to each well and incubated at 37° C. with 5% CO2. The explants were treated with RUNX1 inhibitor (Ro5-3335). Phase contrast photos of individual explants were taken daily.
as §2, with “from patients,” for “from patients and”, “(BD Biosciences), and” for “(BD Biosciences)”, “matrigel was” for “matrigel were”, “After seeding,” for “After seeding”, “PVR membrane” for “PVR membrane,”, “inhibitor (Ro5-3335) or a combination of Ro5-3335 and methotrexate.” for “inhibitor (Ro5-3335).”

Experiment [4] relates to ARPE-19 cells. Description: Growth factor-induced EMT in ARPE-19 cells (morphology, marker immunofluorescence). Type of experiment: cell-based. The settings on record: TGFβ2, TNFα. As for the experimental part:
ARPE-19 cells were grown to confluence and maintained in 1% serum for 7-10 days (FIG. 22). Cells were treated with growth factors TGFβ2, TNFα and IL-6 (10 ng/ml each) for 3 days, with 150 μM RUNX1 inhibitor (Ro5-3335, Calbiochem) or without (e.g., vehicle). […] EMT was determined by morphological changes including cell shape.
Furthermore, treatment with RUNX1 small molecule inhibitor, Ro5-335, in ARPE-19 cells prevented EMT. This was assessed by the reduction in the epithelial marker, cytokeratin, and an increase in the mesenchymal markers such as fibronectin, and smooth muscle actin (FIGS. 23A and 23B). ARPE-19 cells were grown to confluence and maintained in 1% for 7-10 days. Cells were treated with TGFβ2, TNFα, and a combination of TGFβ2, TNFα and IL-6 (10 ng/ml each) for 3 days with or without 150 uM RUNX1 inhibitor (Ro5-3335, Calbiochem) or vehicle. Cells were washed and fixed with 4% paraformaldehyde for 10 minutes at room temperature. Cells were incubated with primary antibodies, mouse anti-cytokeratin (1:250; Abcam), or rabbit anti-fibronectin (1:500, Sigma) or smooth muscle actin (1:50; DAKO) overnight at 4° C. […]
ARPE-19 cells were grown to 60-70% confluence. […] EMT was determined by morphological changes (e.g., cell shape).

Experiment [5] relates to C-PVR cells. Description: CyQuant cell proliferation assay in C-PVR cells. Type of experiment: cell-based, human. The settings on record: for proliferation / percent live cells of C-PVR cells: 72 hours, vs vehicle. How it is done: as §1
A CyQuant Cell Proliferation Assay was performed 48 and 72 hours post-treatment, with lenalidomide at 40 nM, and 80 nM. […] C-PVR cells were cultured in 96 well plates for 8 hours, followed by treatment with lenalidomide (Sigma-Aldrich) in growth media or vehicle only for a period of 48 or 72 hours. The cells were washed, and CyQuant Direct and nucleic acid stain was added and incubated at 37° C. Fluorescence read outs were measured at wavelengths as instructed in the protocol.

As for `CN(Cc1cnc2nc(N)nc(N)c2n1)c1ccc(C(=O)N[C@@H](CCC(=O)O)C(=O)O)cc1` [methotrexate], the percent live cells entry with ARPE-19 cells [1] (ARPE-19, 24 hours) is reported as “significant reduction in percent live cells”; in the experiment with ARPE-19 cells [1] (ARPE-19, 48 hours) it was “significant reduction in percent live cells”; in the experiment on C-PVR cells [2] (24 hours), “significant reduction in percent live cells”; in the experiment with C-PVR cells [2] (48 hours), “significant reduction in percent live cells”.

Turning to `O=C1CN=C(c2ccc[nH]2)c2cc(Cl)ccc2N1` [Ro5-3335], the “cell number and proliferative capacity of C-PVR cells (Ki67 staining)” value was “significant reduction in the cell number and proliferative capacity” in the experiment on C-PVR cells [3]; “significant reduction in the cell number and proliferative capacity” with C-PVR cells [3] (listed as Ro5-335). Further, the “detachment of the branches from the primary tissue in human PVR explants” value in the experiment on human PVR membranes was “Detachment of the branches from the primary tissue was also observed”. In addition, the “branching, regression of branches and apoptosis in human PVR explants” value in the experiment on human PVR membranes (vs DMSO) is “apoptosis, less branching and a faster regression of the branches; also recorded: Less branching, a faster regression of the branches and apoptosis”. In addition, the “growth of human PVR membranes in explant model” value in the experiment on human PVR membranes was “significant reduction of human PVR; also recorded: no growth after 4 days; also recorded: reduced growth of human PVR membranes”; with human PVR membranes (listed as Ro5-335) it was “reduced the growth of human PVR membranes; also recorded: now growth after four days”. The “EMT determined by morphological changes including cell shape” value in the experiment with ARPE-19 cells [4] (IL-6 (10 ng/ml each) 3 days, Ro5-3335 150 μM vs vehicle) is given as “either no or reduced EMT”. Further, the “EMT assessed by cytokeratin, fibronectin and smooth muscle actin immunofluorescence” value with ARPE-19 cells [4] (combination with IL-6 (10 ng/mL each) 3 days, Ro5-3335 150 uM) is “prevented EMT”. The “efficacy at inhibiting growth of ARPE-19 cells compared to methotrexate” value with ARPE-19 cells [1] (24 or 48 hours) is listed as “more efficacious at inhibiting growth of ARPE-19 cells; also recorded: more efficacious than treatment with methotrexate”. Also, the percent live cells result in the experiment with ARPE-19 cells [1] (ARPE-19, 24 hours) is “significant reduction in percent live cells”; in the experiment on ARPE-19 cells [1] (ARPE-19, 48 hours), “significant reduction in percent live cells”; in the experiment with C-PVR cells [2] (24 hours) it was “significant reduction in percent live cells”; with C-PVR cells [2] (48 hours), “significant reduction in percent live cells”. Moreover, the “efficacy at inhibiting growth of C-PVR cells compared to methotrexate” value in the experiment on C-PVR cells [2] (24 or 48 hours) is given as “more efficacious than treatment with methotrexate at inhibiting growth of C-PVR cells”.

Regarding `Nc1cccc2c1CN(C1CCC(=O)NC1=O)C2=O` (stereo not drawn) [lenalidomide, 3-(7-amino-3-oxo-1H-isoindol-2-yl)piperidine-2,6-dione], the “proliferation of C-PVR cells” value in the experiment on C-PVR cells [5] (40 nM, 48 hours) is “inhibited proliferation”; in the experiment on C-PVR cells [5] (80 nM, 48 hours) it was “inhibited proliferation”; with C-PVR cells [5] (40 and 80 nM, 48 and 72 hours (summary statement)), “significantly reduced proliferation”; in the experiment on C-PVR cells [5] (40 and 80 nM, 48 and 72 hours (summary statement), listed as Lenlidomide), “inhibited proliferation”. In addition, the “proliferation / percent live cells of C-PVR cells” value with C-PVR cells [5] (40 nM) and with C-PVR cells [5] (80 nM) was “significant reduction in percent live cells” each time.
